By IC50 is commonly meant the concentration at which inhibition is half-maximal.

The target of the first test is T1, human MC5R (Homo sapiens, UniProt P33032).
T1 construct: purchased Perkin Elmer RBXMC5M400UA
T1 sequence (P33032 whole entry): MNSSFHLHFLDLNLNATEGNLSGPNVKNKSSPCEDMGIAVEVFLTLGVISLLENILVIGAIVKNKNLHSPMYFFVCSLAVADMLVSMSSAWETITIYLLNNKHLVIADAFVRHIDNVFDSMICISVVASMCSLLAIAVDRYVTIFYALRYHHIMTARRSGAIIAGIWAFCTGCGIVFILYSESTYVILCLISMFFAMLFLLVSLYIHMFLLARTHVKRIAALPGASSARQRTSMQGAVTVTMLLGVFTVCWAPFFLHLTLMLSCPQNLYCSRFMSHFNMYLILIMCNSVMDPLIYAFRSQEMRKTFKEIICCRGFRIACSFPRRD
Description: Human MC5R radioligand binding assay ([125I] NDP-MSH displacement, hMC5R membranes).
Settings: not given
Put shortly: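 Bound ligand collected by filtration on PEI-soaked GF/A filters and counted. Data fitted to a single-site competition model with fixed Hill coefficient to give EC50.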
`CC[C@H](CN1CC[C@@H](CNC(=O)c2ccc3cc(Cl)ccc3c2)N[C@@H](CC(C)(C)N2CCCCC2)C1=O)c1ccccc1` (racemic) [Compound 499, 6-chloro-N-(((3S,5S)-3-(2-methyl-2-(piperidin-1-yl)propyl)-2-oxo-1-((S)-2-phenylbutyl)-1,4-diazepan-5-yl)methyl)-2-naphthamide] came in with a half-maximal inhibitory concentration (IC50) of less than 100 nM. On the same count and under the same terms, next, `CC[C@H](CN1CC[C@@H](CNC(=O)c2ccc(Cl)c(Cl)c2)N[C@@H](CCN)C1=O)C(C)C` (racemic) [Compound 490, N-(((3S,5S)-3-(2-aminoethyl)-1-((S)-2-ethyl-3-methylbutyl)-2-oxo-1,4-diazepan-5-yl)methyl)-3,4-dichlorobenzamide]: less than 10000 nM.

The test is the same for the next values; noted with them: hMC5R assay as in Example 102; compounds tested as trifluoroacetate or hydrochloride salts, or as free base.
As for `O=C(/C=C/c1ccc(Cl)cc1)NC[C@@H]1CCN(CC(c2ccccc2)c2ccccc2)C(=O)[C@H](CCc2ccccc2)N1` [Compound 320, (E)-3-(4-chlorophenyl)-N-(((3S,5S)-1-(2,2-diphenylethyl)-2-oxo-3-phenethyl-1,4-diazepan-5-yl)methyl)acrylamide], the concentration for half-maximal inhibition (IC50) was less than 1000 nM.

As for `O=C(/C=C/c1ccc(Cl)cc1)NC[C@@H]1CCN(CC(c2ccccc2)c2ccccc2)C(=O)[C@H](CCCN2CCCCC2)N1` [Compound 262, (E)-3-(4-chlorophenyl)-N-(((3S,5S)-1-(2,2-diphenylethyl)-2-oxo-3-(3-(piperidin-1-yl)propyl)-1,4-diazepan-5-yl)methyl)acrylamide], the IC50 was less than 100 nM. Still for that read-out and setting: next, `CCCC[C@@H]1N[C@H](CNC(=O)/C=C/c2ccc(Cl)cc2)CCN(CC(c2ccccc2)c2ccccc2)C1=O` [Compound 297, (E)-N-(((3S,5S)-3-butyl-1-(2,2-diphenylethyl)-2-oxo-1,4-diazepan-5-yl)methyl)-3-(4-chlorophenyl)acrylamide]: less than 1000 nM. Regarding `COc1cc2ccccc2cc1C(=O)NC[C@@H]1CCN(CC(c2ccccc2)c2ccccc2)C(=O)[C@H](CCCNC(=N)N)N1` [Compound 163, N-(((3S,5S)-1-(2,2-diphenylethyl)-3-(3-guanidinopropyl)-2-oxo-1,4-diazepan-5-yl)methyl)-3-methoxy-2-naphthamide], the half-inhibitory concentration (IC50) is less than 1000 nM.

With `COc1cccc(/C=C/C(=O)NC[C@@H]2CCN(CC(c3ccccc3)c3ccccc3)C(=O)[C@H](CCCNC(=N)N)N2)c1` [Compound 180, (E)-N-(((3S,5S)-1-(2,2-diphenylethyl)-3-(3-guanidinopropyl)-2-oxo-1,4-diazepan-5-yl)methyl)-3-(3-methoxyphenyl)acrylamide], the concentration for half-maximal inhibition (IC50) was less than 1000 nM. As to `NCCC[C@@H]1N[C@H](CNC(=O)c2cc(-c3ccc(Cl)cc3)on2)CCN(CC(c2ccccc2)c2ccccc2)C1=O` [Compound 240, N-(((3S,5S)-3-(3-aminopropyl)-1-(2,2-diphenylethyl)-2-oxo-1,4-diazepan-5-yl)methyl)-5-(4-chlorophenyl)isoxazole-3-carboxamide], the half-inhibitory concentration (IC50) was less than 100 nM.

On to `COc1c(C(=O)NC[C@@H]2CCN(CC(c3ccccc3)c3ccccc3)C(=O)[C@H](CCCNC(=N)N)N2)ccc2ccccc12` [Compound 156, N-(((3S,5S)-1-(2,2-diphenylethyl)-3-(3-guanidinopropyl)-2-oxo-1,4-diazepan-5-yl)methyl)-1-methoxy-2-naphthamide], for which the half-inhibitory concentration (IC50) is less than 100 nM. For `CCN(CC)CC[C@@H]1N[C@H](CNC(=O)/C=C/c2ccc(Cl)cc2)CCN(CC(c2ccccc2)c2ccccc2)C1=O` [Compound 378, (E)-3-(4-chlorophenyl)-N-(((3S,5S)-3-(2-(diethylamino)ethyl)-1-(2,2-diphenylethyl)-2-oxo-1,4-diazepan-5-yl)methyl)acrylamide], the IC50 was less than 100 nM. The same measure, in the same setting: under `O=C(NC[C@@H]1CCN(CC(c2ccccc2)c2ccccc2)C(=O)[C@H](CCCNC2CCCCC2)N1)c1ccc2ccccc2c1` [Compound 226, N-(((3S,5S)-3-(3-(cyclohexylamino)propyl)-1-(2,2-diphenylethyl)-2-oxo-1,4-diazepan-5-yl)methyl)-2-naphthamide] stands less than 100 nM; under `N=C(N)NCCC[C@@H]1N[C@H](CNC(=O)c2ccc(Cl)c(Cl)c2)CCN(CC(c2ccccc2)c2ccccc2)C1=O` [Compound 152, 3,4-dichloro-N-(((3S,5S)-1-(2,2-diphenylethyl)-3-(3-guanidinopropyl)-2-oxo-1,4-diazepan-5-yl)methyl)benzamide], less than 100 nM. `O=C(/C=C/c1ccc(Cl)cc1)NC[C@@H]1CCN(CC(c2ccccc2)c2ccccc2)C(=O)[C@H](CN2CCCCC2)N1` [Compound 279, (E)-3-(4-chlorophenyl)-N-(((3S,5S)-1-(2,2-diphenylethyl)-2-oxo-3-(piperidin-1-ylmethyl)-1,4-diazepan-5-yl)methyl)acrylamide]: the IC50 was less than 10 nM. The same measure, in the same setting: under `N=C(N)NCCC[C@@H]1N[C@H](CNC(=O)C2CCc3ccccc3C2)CCN(CC(c2ccccc2)c2ccccc2)C1=O` (stereo partly drawn) [Compound 111, N-(((3S,5S)-1-(2,2-diphenylethyl)-3-(3-guanidinopropyl)-2-oxo-1,4-diazepan-5-yl)methyl)-1,2,3,4-tetrahydronaphthalene-2-carboxamide] stands less than 100 nM. Take `O=C(/C=C/c1ccc(Cl)cc1)NC[C@@H]1CCN(Cc2cc(Cl)cc(Cl)c2)C(=O)[C@H](CN2CCCCC2)N1` [Compound 368, (E)-3-(4-chlorophenyl)-N-(((3S,5S)-1-(3,5-dichlorobenzyl)-2-oxo-3-(piperidin-1-ylmethyl)-1,4-diazepan-5-yl)methyl)acrylamide]: the IC50 is less than 100 nM. Consider `N=C(N)NCCC[C@@H]1N[C@H](CNC(=O)c2ccc(Br)cc2)CCN(CC(c2ccccc2)c2ccccc2)C1=O` [Compound 164, 4-bromo-N-(((3S,5S)-1-(2,2-diphenylethyl)-3-(3-guanidinopropyl)-2-oxo-1,4-diazepan-5-yl)methyl)benzamide], for which the IC50 was less than 1000 nM. Same read-out and setting: next, `N=C(N)NCCC[C@@H]1N[C@H](CNC(=O)C2CCCCC2)CCN(CC(c2ccccc2)c2ccccc2)C1=O` [Compound 139, N-(((3S,5S)-1-(2,2-diphenylethyl)-3-(3-guanidinopropyl)-2-oxo-1,4-diazepan-5-yl)methyl)cyclohexanecarboxamide]: less than 10000 nM.

For the molecule `COc1ccc(C(=O)NC[C@@H]2CCN(CC(c3ccccc3)c3ccccc3)C(=O)[C@H](CCCNC(=N)N)N2)c(OC)c1` [Compound 146, N-(((3S,5S)-1-(2,2-diphenylethyl)-3-(3-guanidinopropyl)-2-oxo-1,4-diazepan-5-yl)methyl)-2,4-dimethoxybenzamide], the IC50 was less than 10000 nM. `N=C(N)NCCC[C@@H]1N[C@H](CNC(=O)/C=C/c2ccc(C(F)(F)F)cc2)CCN(CC(c2ccccc2)c2ccccc2)C1=O` [Compound 200, (E)-N-(((3S,5S)-1-(2,2-diphenylethyl)-3-(3-guanidinopropyl)-2-oxo-1,4-diazepan-5-yl)methyl)-3-(4-(trifluoromethyl)phenyl)acrylamide]: the half-inhibitory concentration (IC50) is less than 100 nM. The same measure, in the same setting: next, `O=C(NC[C@@H]1CCN(Cc2cc(Cl)cc(Cl)c2)C(=O)[C@H](CN2CCCCC2)N1)c1ccc(Cl)c(Cl)c1` [Compound 367, 3,4-dichloro-N-(((3S,5S)-1-(3,5-dichlorobenzyl)-2-oxo-3-(piperidin-1-ylmethyl)-1,4-diazepan-5-yl)methyl)benzamide]: less than 1000 nM; `CN1[C@H](CNC(=O)c2ccc3cc(Br)ccc3c2)CCN(CC(c2ccccc2)c2ccccc2)C(=O)[C@@H]1CCCN` [Compound 62, N-(((3S,5S)-3-(3-aminopropyl)-1-(2,2-diphenylethyl)-4-methyl-2-oxo-1,4-diazepan-5-yl)methyl)-6-bromo-2-naphthamide]: less than 1000 nM.

In the case of `N=C(N)NCCC[C@@H]1N[C@H](CNC(=O)c2ccc3cc(Br)ccc3c2)CCN(CC(c2ccccc2)c2ccccc2)C1=O` [Compound 181, 6-bromo-N-(((3S,5S)-1-(2,2-diphenylethyl)-3-(3-guanidinopropyl)-2-oxo-1,4-diazepan-5-yl)methyl)-2-naphthamide], the IC50 is less than 10 nM. Still for that read-out and setting: under `NC[C@@H]1N[C@H](CNC(=O)c2ccc3ccccc3c2)CCN(Cc2cc(Cl)cc(Cl)c2)C1=O` [Compound 365, N-(((3S,5S)-3-(aminomethyl)-1-(3,5-dichlorobenzyl)-2-oxo-1,4-diazepan-5-yl)methyl)-2-naphthamide] stands less than 1000 nM; under `N=C(N)NCCC[C@@H]1N[C@H](CNC(=O)/C=C/c2cccs2)CCN(CC(c2ccccc2)c2ccccc2)C1=O` [Compound 167, (E)-N-(((3S,5S)-1-(2,2-diphenylethyl)-3-(3-guanidinopropyl)-2-oxo-1,4-diazepan-5-yl)methyl)-3-(thiophen-2-yl)acrylamide], less than 100 nM. On the same count and under the same terms, under `NCCC[C@@H]1N[C@H](CNC(=O)c2ccc(Cl)c(Cl)c2)CCN(CC(c2ccccc2)c2ccccc2)C1=O` [Compound 224, N-(((3S,5S)-3-(3-aminopropyl)-1-(2,2-diphenylethyl)-2-oxo-1,4-diazepan-5-yl)methyl)-3,4-dichlorobenzamide] stands less than 100 nM.

Still in this test, the particulars now being: hMC5R binding assay as in Example 102; compounds tested as trifluoroacetate or hydrochloride salts, or as free base.
With `CC[C@H](CN1CC[C@H](CNC(=O)c2ccc3cc(Cl)ccc3c2)N[C@@H](CCN2CCCCC2)C1=O)c1ccccc1` [Compound 581, 6-chloro-N-(((3S,5R)-2-oxo-1-((S)-2-phenylbutyl)-3-(2-(piperidin-1-yl)ethyl)-1,4-diazepan-5-yl)methyl)-2-naphthamide], the half-maximal inhibitory concentration (IC50) is less than 100 nM. Still for that read-out and setting: next, `CC[C@H](CN1CC[C@@H](CNC(=O)c2ccc3cc(Cl)ccc3c2)N[C@@H](CCN2CCCCC2)C1=O)c1ccccc1` [Compound 569, 6-chloro-N-(([5-^13C,4-^15N](3S,5S)-2-oxo-1-((S)-2-phenylbutyl)-3-(2-(piperidin-1-yl)ethyl)-1,4-diazepan-5-yl)[^13C]methyl)-2-naphthamide]: less than 10 nM; `CC[C@@H](CN1CC[C@H](CNC(=O)c2ccc3cc(Cl)ccc3c2)N[C@@H](CCN2CCCCC2)C1=O)c1ccccc1` [Compound 583, 6-chloro-N-(((3S,5R)-2-oxo-1-((R)-2-phenylbutyl)-3-(2-(piperidin-1-yl)ethyl)-1,4-diazepan-5-yl)methyl)-2-naphthamide]: less than 1000 nM.

Values taken from EP2257297B1, “COMPOUNDS FOR USE IN THE TREATMENT OF ACNE, SEBORRHOEA AND SEBHORROEIC DERMATITIS, OR FOR REDUCING SEBUM SECRETION” (priority 2008, dated 2009).
